Experimental data from article PMC4199632, “Exploring the Anti-Cancer Activity of Novel Thiosemicarbazones Generated through the Combination of Retro-Fragments: Dissection of Critical Structure-Activity Relationships” (PLoS ONE, 2014).

Key:
[1] = system: HeLa cervical carcinoma cells; assay: Proliferation assay (crystal violet, 72 h); assay type: cell-based; settings: Homo sapiens, 72 h incubation, mean ±SD (3 experiments)
Experimental: (§1) The human cancer cell types (neuroepithelioma (SK-N-MC), colon cancer (HCT116 with wild-type p53 (p53^+/+)), Burkitt's lymphoma (Raji) and cervical carcinoma (HeLa)) cells and normal human dermal fibroblasts (NHDF) were obtained from the American Type Culture Collection (ATCC, Manassas, VA, USA). HCT116 null p53 (p53^−/−) cells were obtained from the Maria Sklodowska-Curie Memorial Cancer Center and Institute of Oncology, Poland.
(§2) The SK-N-MC cells were cultured in minimum essential medium (MEM; Life Technologies, Grand Island, New York, USA) containing 10% (v/v) fetal bovine serum (FBS; Life Technologies), 1 mM sodium pyruvate (Life Technologies), 1% (v/v) non-essential amino acids (Life Technologies), 2 mM L-glutamine (Life Technologies), 100 U/mL penicillin (Life Technologies), 100 µg/mL streptomycin (Life Technologies) and 0.28 µg/mL fungizone (Bristol Myers Squibb Pharmaceuticals, Montreal, Canada). The HCT116 and NHDF cells were grown in Dulbecco's modified Eagle's medium (DMEM; Sigma-Aldrich) supplemented with 12% (v/v) heat-inactivated FBS (HCT116; Life Technologies) or 15% (v/v) FBS (NHDF; Life Technologies), 100 µg/mL of gentamicin (Polfa Warszawa S.A., Warsaw, Poland), 100 µg/mL of streptomycin (Polfa) and 100 U/mL of penicillin (Polfa). The Raji and HeLa cells were cultured in Roswell Park Memorial Institute medium (RPMI-1640; Sigma-Aldrich) with the addition of 10% (v/v) heat-inactivated FBS (Life Technologies) and the supplements described for SK-N-MC cells above. All cell lines were cultured under standard conditions at 37°C in a humidified atmosphere at 5% CO2 and were subcultured every 3–4 days as required.
(§3) The cells were seeded in 96-well plates (SK-N-MC: 1.5×10^4 cells/well; HeLa: 5.0×10^3 cells/well; Raji: 3.0×10^3 cells/well; HCT116: 3.5×10^3 cells/well; NHDF: 3.0×10^3 cells/well) 24 h prior to the addition of the novel compounds. The assays were performed using a 72 h (SK-N-MC, Raji, HeLa) or 96 h (HCT 116, NHDF) incubation period with the agents at 37°C. […] Additionally, DFO and Dp44mT were included as positive controls in all experiments as their activity is well characterized, [42], [50].
(§4) Chelator stock solutions were prepared in DMSO and diluted in media so that the final [DMSO] <0.05%. The results were expressed as a percentage of the control and the resulting IC50 values were calculated using GraphPad Prism 5 (GraphPad Software, Inc., La Jolla, CA, USA). The IC50 was defined as the concentration necessary to reduce the absorbance to 50% of the untreated control. Each individual compound was tested in triplicate in a single experiment, with each experiment being repeated three times. After incubation of HCT 116 and NHDF cells with the tested compounds, 20 µL of the CellTiter 96 Aqueous One Solution - MTS (Promega, Madison, WI, USA) solution was added to each well (with 100 µL of DMEM without phenol red) and incubated for 1 h/37°C. The optical density of the samples was analyzed at 490 nm.
(§5) MTT (3-[4,5-dimethylthiazol-2-yl]-2,5-diphenyltetrazolium bromide) was used to evaluate the anti-proliferative effects of the chelators in SK-N-MC and Raji cells. Following incubation with the investigated compounds, 10 µL of MTT (5 mg/mL in PBS; Sigma-Aldrich) was added to each well. After a 2 h (SK-N-MC) or 4 h (Raji) incubation, the plates were centrifuged, and the cells were lysed with 100 µL of 10% SDS-50% isobutanol in 0.01 M HCl (SK-N-MC) or DMSO (Raji). The absorbance was measured at 570 nm. The anti-proliferative effects of these novel agents on HeLa cells were estimated using crystal violet staining (0.5% crystal violet solution for 10 min). Finally, the wells were rinsed with water and the cells were lysed with 2% SDS. The optical density of the samples was analyzed at 595 nm.

[2] = system: HCT116 p53−/− colon cancer cells; assay: Proliferation assay (MTS, 96 h); assay type: cell-based, human; settings: Homo sapiens, HCT-116, 96 h, 96 h incubation, MTS; mean ±SD (3 experiments)
Experimental: as §1, §2, §3, §4

[3] = system: HCT116 p53+/+ colon cancer cells; assay: Proliferation assay (MTS, 96 h); assay type: cell-based, human; settings: Homo sapiens, HCT-116; 96 h incubation, MTS; mean ±SD (3 experiments)
Experimental: as §1, §2, §3, §4

[4] = system: Raji Burkitt's lymphoma cells; assay: Proliferation assay (MTT, 72 h); assay type: cell-based; settings: Homo sapiens, 72 h incubation, mean ±SD (3 experiments)
Experimental: as §1, §2, §3, §4, §5

[5] = system: SK-N-MC neuroepithelioma cells; assay: Proliferation assay (MTT, 72 h); assay type: cell-based; settings: Homo sapiens, 72 h incubation, mean ±SD (3 experiments)
Experimental: as §1, §2, §3, §4, §5

[6] = system: normal human dermal fibroblast (NHDF) cells; assay: Proliferation assay (MTS, 96 h), normal mortal cells; assay type: cell-based; settings: Homo sapiens, NHDF, 96 h, 96 h incubation, mean ±SD (3 experiments)
Experimental: as §1, §2, §3, §4

[7] = system: SK-N-MC cells; assay: Mobilization of cellular 59Fe (59Fe efflux); assay type: cell-based, human; settings: chelator 25 µM; for 59Fe mobilization (% of cellular 59Fe released): 3 h/37°C, prelabeled SK-N-MC cells, control medium 4±1%
Experimental: (§6) The iron transport protein, Tf (Sigma-Aldrich), was labeled with ^59Fe (PerkinElmer Life and Analytical Sciences, Boston, MA) to form ^59Fe2-Tf using standard methods, [7]. Unbound ^59Fe was removed by passage through a Sephadex G25 column and was followed by exhaustive dialysis, [7].
To examine the ability of the novel chelators to mobilize ^59Fe from SK-N-MC cells, ^59Fe efflux experiments were performed using established techniques, [51]. The monolayer of SK-N-MC cells was prelabeled for 3 h at 37°C in MEM containing ^59Fe2-Tf (0.75 µM). Cells were then washed four times with ice-cold PBS and incubated for a further 3 h at 37°C with medium alone (the control) or medium containing the chelator (25 µM). After this incubation, the overlying medium that contained the released ^59Fe was separated from the cells using a Pasteur pipette. Radioactivity was measured in both the cells and supernatant using a γ-scintillation counter (Wallac Wizard 3, Turku, Finland). In these studies, the novel ligands were compared to the previously characterized chelators, DFO and Dp44mT, as their ability to mobilize cellular ^59Fe has been extensively examined in these cells, [12], [17], [18], [50].
Figure 6 Effect of (A) series 1, (B) series 2, (C) series 3, (D) series 4, (E) series 5 and (F) series 6 chelators, relative to the controls DFO and Dp44mT, on ^59Fe mobilization from prelabeled SK-N-MC cells. Cells were incubated for 3 h/37°C with ^59Fe-transferrin (0.75 µM), washed 4 times with ice-cold PBS and then reincubated for 3 h/37°C in the presence or absence of the chelators (25 µM). Release of ^59Fe was then assessed using a γ-scintillation counter. Results are mean ±SD (3 experiments).

[8] = system: SK-N-MC cells; assay: Inhibition of cellular 59Fe uptake from 59Fe2-Tf; assay type: cell-based, human; settings: chelator 25 µM
Experimental: as §6
The ability of the chelators to prevent the cellular uptake of ^59Fe from ^59Fe2-Tf was examined using standard methods, [14], [17], [18], [50]. A monolayer of SK-N-MC cells was incubated with medium containing ^59Fe2-Tf (0.75 µM) and the chelator (25 µM) for 3 h at 37°C. The medium was then removed and the cells were washed four times with ice-cold PBS. The cells were then incubated for 30 min at 4°C with the general protease, Pronase (1 mg/mL; Sigma-Aldrich), to remove membrane-bound ^59Fe. The cells were removed using a plastic spatula and centrifuged at 14,000 rpm/1 min to separate internalized from membrane-bound ^59Fe. The cell pellet was resuspended in 1 mL of PBS and the internalized ^59Fe was measured on a γ-scintillation counter. Internalized ^59Fe uptake was calculated as a percentage of the control (medium alone). Again, the novel ligands were compared to DFO and Dp44mT as their ability to inhibit cellular ^59Fe uptake has been extensively characterized using SK-N-MC cells, [14], [17], [18], [50].
Figure 8 Effect of (A) series 1, (B) series 2, (C) series 3, (D) series 4, (E) series 5 and (F) series 6 chelators, relative to the controls DFO and Dp44mT, on ^59Fe uptake from ^59Fe-transferrin by SK-N-MC cells. Cells were incubated for 3 h/37°C with ^59Fe-transferrin (0.75 µM) in the presence or absence of the chelators (25 µM). At the end of this incubation, cells were washed 4 times with ice-cold PBS. Internalization of ^59Fe was assessed by incubation for 30 min/4°C with the protease, Pronase (1 mg/mL). Cellular ^59Fe was then assessed using a γ-scintillation counter. Results are mean ±SD (3 experiments).

[9] = design: method as in PMID 17851637, PMID 18217206, PMID 15148626; settings: clinical trials; cited from earlier work

| Compound | melting point [°C] | IC50 [1] [µM] | IC50 [2] [µM] | IC50 [3] [µM] | IC50 [4] [µM] | IC50 [5] [µM] | IC50 [6] [µM] | 59Fe mobilization (% of cellular 59Fe released) [7] | Internalized 59Fe uptake from 59Fe2-Tf (% of the control) ([8]; 59Fe2-Tf 0.75 µM, 3 h/37°C) | Side effects upon administration [9] | 59Fe mobilization efficacy compared with controls ([7]; SK-N-MC cells) | Inhibition of 59Fe uptake compared with controls [8] |
| --- | --- | --- | --- | --- | --- | --- | --- | --- | --- | --- | --- | --- |
| S=C(NN=C(c1ccccn1)c1ccccn1)N1CCOCC1 [1c] | – | 2.21 ± 0.47 | 0.014 ± 0.006 | 0.014 ± 0.005 | 0.003 ± 0.004 | 1.21 ± 0.35 | 0.016 ± 0.006 | 31–39% | 3.6–11.5% | – | – | – |
| CCN1CCN(C(=S)N/N=C/c2c(O)ccc3cccnc23)CC1 [4a] | – | 11.3 ± 1.6 | 20.3 ± 0.9 | 20.2 ± 0.3 | 3.35 ± 1.11 | 5.09 ± 0.47 | 12.1 ± 4.2 | 31–39% | – | – | – | – |
| NC(=S)NN=Cc1ncccc1N [Triapine, 3-aminopyridine-2-carboxaldehyde thiosemicarbazone] | – | – | – | – | – | – | – | – | – | methemoglobin formation and hypoxia | – | – |
| S=C(N/N=C/c1ccc2ccccc2n1)N1CCN(c2ccccn2)CC1 [2d] | – | 5.14 ± 2.87 | 0.27 ± 0.16 | 0.39 ± 0.15 | 0.05 ± 0.02 | 0.52 ± 0.16 | 0.032 ± 0.008 | – | – | – | comparable release of ^59Fe relative to DFO | comparable inhibition of ^59Fe uptake to that of DFO |

Further lines, with some results ahead:

| melting point [°C] | IC50 [1] [µM] | IC50 [2] [µM] | IC50 [3] [µM] | IC50 [4] [µM] | IC50 [5] [µM] | Compound | IC50 [6] [µM] | 59Fe mobilization (% of cellular 59Fe released) [7] | Internalized 59Fe uptake from 59Fe2-Tf (% of the control) ([8]; 59Fe2-Tf 0.75 µM, 3 h/37°C) | Side effects upon administration [9] | 59Fe mobilization efficacy compared with controls ([7]; SK-N-MC cells) | Inhibition of 59Fe uptake compared with controls [8] |
| --- | --- | --- | --- | --- | --- | --- | --- | --- | --- | --- | --- | --- |
| 206 to 207 | 5.8 ± 0.48 | 8.86 ± 1.46 | 6.9 ± 2.3 | 1.96 ± 0.85 | 5.13 ± 0.51 | Oc1ccccc1/C=N/NC(=S)N1CCN(c2ccccc2)CC1 [6b] | 13.5 ± 4.8 | – | – | – | – | – |
| – | 10.2 ± 1.2 | 19.8 ± 4.9 | 20.1 ± 0.3 | 3.53 ± 1.87 | 4.97 ± 0.95 | Oc1ccc2cccnc2c1/C=N/NC(=S)N1CCOCC1 [4c] | > 25 | 31–39% | – | – | – | – |
